Experimental data taken from patent publication US9718790B2, “Triazine derivative and pharmaceutical composition having an analgesic activity comprising the same” (SHIONOGI & CO., LTD., priority 2010, dated 2017).

Biological target: human P2X3 receptor (Homo sapiens (Human), UniProt P56373)
Assay: Evaluation of human P2X3 receptor inhibitory activity (Fluo-3 calcium fluorescence, FDSS 3000, ATP stimulation);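 also: stimulus was 50 nM ATP with fluorescence followed for 3 min, and the response per well was peak post-ATP fluorescence divided by the reading at measurement start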
Format: cell-based
Conditions: human P2X3 receptor, Test Example 1

human P2X3 receptor, sequence (P56373 whole entry): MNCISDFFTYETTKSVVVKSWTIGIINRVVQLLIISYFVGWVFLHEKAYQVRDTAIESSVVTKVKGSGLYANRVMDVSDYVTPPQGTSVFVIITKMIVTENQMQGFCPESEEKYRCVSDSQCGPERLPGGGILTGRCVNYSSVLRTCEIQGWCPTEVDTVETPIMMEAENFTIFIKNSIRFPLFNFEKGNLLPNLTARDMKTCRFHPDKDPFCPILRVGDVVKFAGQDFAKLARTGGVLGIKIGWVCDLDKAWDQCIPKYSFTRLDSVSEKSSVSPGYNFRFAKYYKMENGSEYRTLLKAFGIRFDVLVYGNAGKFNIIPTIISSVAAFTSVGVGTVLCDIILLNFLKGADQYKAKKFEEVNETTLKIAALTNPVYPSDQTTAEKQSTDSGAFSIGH

| SMILES | IC50 [µM] |
| --- | --- |
| Cc1ccc(Cn2c(=O)n(C)c(=O)[nH]/c2=N\c2ccc(Oc3cncc(C(N)=O)n3)cc2)cc1 [Compound I-2473] | 0.008 |
| CCn1c(=O)[nH]/c(=N\c2ccc(Oc3cncc(C(=O)O)n3)cc2)n(Cc2ccc(C)cc2)c1=O [Compound I-2474] | 0.007 |
| Cc1ccc(Cn2c(=O)n(C)c(=O)[nH]/c2=N\c2ccc(Oc3cncc(C(=O)O)n3)cc2)cc1 [Compound I-2475] | 0.012 |
| Cn1c(=O)[nH]/c(=N\c2ccc(Oc3cncc(C(=O)O)n3)cc2)n(Cc2ccc(Cl)cc2)c1=O [Compound I-2476] | 0.013 |
| O=c1[nH]/c(=N\c2ccc(Oc3cnsn3)cc2)n(Cc2ccc(Cl)cc2)c(=O)n1CCO [Compound I-2477] | 0.015 |
| O=c1[nH]/c(=N\c2ccc(Oc3cnsn3)cc2)n(Cc2ccc(Cl)cc2)c(=O)n1CC(CO)CO [Compound I-2478] | 0.005 |
| O=c1[nH]/c(=N\c2ccc(Oc3cnsn3)cc2)n(Cc2ccc(Cl)cc2)c(=O)n1C[C@H](O)CO [Compound I-2479] | 0.008 |
| CC[C@H](C)n1c(=O)[nH]/c(=N\c2ccc(Oc3ccnc(C(=O)O)c3)cc2)n(Cc2ccc(Cl)cc2)c1=O [Compound I-2480] | 0.006 |
| CC[C@H](C)n1c(=O)[nH]/c(=N\c2ccc(Oc3cncc(C(=O)O)c3)cc2)n(Cc2ccc(Cl)cc2)c1=O [Compound I-2481] | 0.008 |
| CC[C@@H](C)n1c(=O)[nH]/c(=N\c2ccc(Oc3ccnc(C(=O)O)c3)cc2)n(Cc2ccc(Cl)cc2)c1=O [Compound I-2482] | 0.011 |
| CC[C@@H](C)n1c(=O)[nH]/c(=N\c2ccc(Oc3cncc(C(=O)O)c3)cc2)n(Cc2ccc(Cl)cc2)c1=O [Compound I-2483] | 0.008 |
| O=C(O)c1cc(Oc2ccc(/N=c3\[nH]c(=O)n(C4CCC4)c(=O)n3Cc3ccc(Cl)cc3)cc2)ccn1 [Compound I-2484] | 0.008 |
| O=C(O)c1cncc(Oc2ccc(/N=c3\[nH]c(=O)n(C4CCC4)c(=O)n3Cc3ccc(Cl)cc3)cc2)c1 [Compound I-2485] | 0.008 |
| C[C@H](C(=O)O)n1c(=O)[nH]/c(=N\c2ccc(Oc3ccon3)cc2)n(Cc2ccc(Cl)cc2)c1=O [Compound I-2486] | 0.381 |
| C[C@H](CO)n1c(=O)[nH]/c(=N\c2ccc(Oc3ccon3)cc2)n(Cc2ccc(Cl)cc2)c1=O [Compound I-2488] | 0.037 |
| C[C@@H](CO)n1c(=O)[nH]/c(=N\c2ccc(Oc3ccon3)cc2)n(Cc2ccc(Cl)cc2)c1=O [Compound I-2489] | 0.05 |
| O=c1[nH]/c(=N\c2ccc(Oc3ccon3)cc2)n(Cc2ccc(Cl)cc2)c(=O)n1CCOCCO [Compound I-2490] | 0.01 |
| CCn1c(=O)[nH]/c(=N\c2ccc(Oc3cc(C(=O)O)n(C)n3)cc2)n(Cc2ccc(Cl)cc2)c1=O [Compound I-2491] | 0.074 |
| CCn1c(=O)[nH]/c(=N\c2ccc(Oc3cccc(C#N)n3)c(F)c2)n(Cc2ccc(Cl)cc2)c1=O [Compound I-2492] | 0.004 |
| Cn1c(=O)[nH]/c(=N\c2ccc(Oc3cccc(C#N)n3)c(F)c2)n(Cc2ccc(Cl)cc2)c1=O [Compound I-2493] | 0.005 |
| CCn1c(=O)[nH]/c(=N\c2ccc(Oc3cccc(C#N)n3)cc2)n(C[C@H]2CC[C@H](C)CC2)c1=O [Compound I-2494] | 0.001 |
| CCn1c(=O)[nH]/c(=N\c2ccc(Oc3cccc(C(N)=O)n3)cc2)n(Cc2ccc(F)cc2)c1=O [Compound I-2495] | 0.021 |
| CCn1c(=O)[nH]/c(=N\c2ccc(Oc3cccc(C(=O)O)n3)cc2)n(Cc2ccc(F)cc2)c1=O [Compound I-2496] | 0.03 |

| SMILES | IC50 [µM] |
| --- | --- |
| CCn1c(=O)[nH]/c(=N\c2ccc(Oc3cccc(C(N)=O)n3)cc2)n(C[C@H]2CC[C@H](C)CC2)c1=O [Compound I-2497] | 0.001 |
| CCn1c(=O)[nH]/c(=N\c2ccc(Oc3cccc(C(=O)O)n3)c(F)c2)n(Cc2ccc(Cl)cc2)c1=O [Compound I-2498] | 0.003 |
| CCn1c(=O)[nH]/c(=N\c2ccc(Oc3cccc(C(=O)O)n3)cc2)n(C[C@H]2CC[C@H](C)CC2)c1=O [Compound I-2499] | 0.005 |
| C[C@H](C(N)=O)n1c(=O)[nH]/c(=N\c2ccc(Oc3ccon3)cc2)n(Cc2ccc(Cl)cc2)c1=O [Compound I-2500] | 0.067 |
| C[C@@H](C(N)=O)n1c(=O)[nH]/c(=N\c2ccc(Oc3ccon3)cc2)n(Cc2ccc(Cl)cc2)c1=O [Compound I-2501] | 0.057 |
| Cn1c(=O)[nH]/c(=N\c2ccc(Oc3cccc(C(=O)O)n3)c(F)c2)n(Cc2ccc(Cl)cc2)c1=O [Compound I-2502] | 0.007 |
| O=c1[nH]c(=O)n(Cc2ccc(Cl)cc2)/c(=N/c2ccc(Oc3cccc(F)n3)cc2)[nH]1 [Compound I-2503] | 0.039 |
| O=C(O)Cn1c(=O)[nH]/c(=N\c2ccc(Oc3ccon3)cc2)n(Cc2ccc(Cl)cc2)c1=O [Compound I-2504] | 0.37 |
| O=c1[nH]/c(=N\c2ccc(Oc3nccs3)cc2)n(Cc2ccc(Cl)cc2)c(=O)n1CCO [Compound I-2505] | 0.017 |
| O=c1[nH]/c(=N\c2ccc(Oc3nccs3)cc2)n(Cc2ccc(Cl)cc2)c(=O)n1C[C@@H](O)CO [Compound I-2506] | 0.014 |
| O=c1[nH]/c(=N\c2ccc(Oc3nccs3)cc2)n(Cc2ccc(F)cc2)c(=O)n1CCCO [Compound I-2507] | 0.035 |
| CC(CO)(CO)Cn1c(=O)[nH]/c(=N\c2ccc(Oc3nccs3)cc2)n(Cc2ccc(F)cc2)c1=O [Compound I-2508] | 0.013 |
| Cc1ccc(Cn2c(=O)n(C[C@H](O)CO)c(=O)[nH]/c2=N\c2ccc(Oc3ccon3)cc2)cc1 [Compound I-2510] | 0.01 |
| Cc1nnc(Oc2ccc(/N=c3\[nH]c(=O)n(C[C@H](O)CO)c(=O)n3Cc3ccc(Cl)cc3)cc2)s1 [Compound I-2511] | 0.235 |
| NC(=O)Cn1c(=O)[nH]/c(=N\c2ccc(Oc3ccon3)cc2)n(Cc2ccc(Cl)cc2)c1=O [Compound I-2512] | 0.011 |
| Cc1cnc(Oc2ccc(/N=c3\[nH]c(=O)n(C[C@H](O)CO)c(=O)n3Cc3ccc(Cl)cc3)cc2)s1 [Compound I-2513] | 0.006 |
| O=c1[nH]/c(=N\c2ccc(Oc3ccsn3)cc2)n(Cc2ccc(Cl)cc2)c(=O)n1CC(O)CO (stereo not shown) [Compound I-2514] | 0.011 |
| CCn1c(=O)[nH]/c(=N\c2ccc(Oc3nnn[nH]3)cc2)n(Cc2ccc(Cl)cc2)c1=O [Compound I-2515] | 0.346 |
| O=c1[nH]/c(=N\c2ccc(Oc3cccc(F)n3)cc2)n(Cc2ccc(Cl)cc2)c(=O)n1CCO [Compound I-2516] | 0.009 |
| Cc1nnc(Oc2ccc(/N=c3\[nH]c(=O)n(CC(CO)CO)c(=O)n3Cc3ccc(Cl)cc3)cc2)s1 [Compound I-2517] | 0.167 |
| Cc1nsc(Oc2ccc(/N=c3\[nH]c(=O)n(C[C@H](O)CO)c(=O)n3Cc3ccc(Cl)cc3)cc2)n1 [Compound I-2518] | 0.004 |
| O=c1[nH]/c(=N\c2ccc(Oc3ncns3)cc2)n(Cc2ccc(Cl)cc2)c(=O)n1C[C@H](O)CO [Compound I-2519] | 0.004 |
| Cc1nsc(Oc2ccc(/N=c3\[nH]c(=O)n(CC(CO)CO)c(=O)n3Cc3ccc(Cl)cc3)cc2)n1 [Compound I-2520] | 0.002 |

| SMILES | IC50 [µM] |
| --- | --- |
| O=c1[nH]/c(=N\c2ccc(Oc3ncns3)cc2)n(Cc2ccc(Cl)cc2)c(=O)n1CC(CO)CO [Compound I-2521] | 0.005 |
| CC(C)(C)OC(=O)NCCn1c(=O)[nH]/c(=N\c2ccc(Oc3ccon3)cc2)n(Cc2ccc(Cl)cc2)c1=O [Compound I-2522] | 0.011 |
| NCCn1c(=O)[nH]/c(=N\c2ccc(Oc3ccon3)cc2)n(Cc2ccc(Cl)cc2)c1=O [Compound I-2523] | 0.169 |
| CC(=O)NCCn1c(=O)[nH]/c(=N\c2ccc(Oc3ccon3)cc2)n(Cc2ccc(Cl)cc2)c1=O [Compound I-2524] | 0.034 |
| O=c1[nH]/c(=N\c2ccc(Oc3cccc(F)n3)cc2)n(Cc2ccc(Cl)cc2)c(=O)n1C[C@@H](O)CO [Compound I-2525] | 0.01 |
| CC(CO)(CO)Cn1c(=O)[nH]/c(=N\c2ccc(Oc3cccc(F)n3)cc2)n(Cc2ccc(F)cc2)c1=O [Compound I-2526] | 0.008 |
| CNC(=O)CCn1c(=O)[nH]/c(=N\c2ccc(Oc3ccon3)cc2)n(Cc2ccc(Cl)cc2)c1=O [Compound I-2527] | 0.026 |
| O=c1[nH]/c(=N\c2ccc(Oc3ccon3)c(F)c2)n(Cc2ccc(Cl)cc2)c(=O)n1C(CO)CO [Compound I-2529] | 0.073 |
| O=c1[nH]/c(=N\c2ccc(Oc3ccsn3)cc2)n(Cc2ccc(Cl)cc2)c(=O)n1C[C@H](O)CO [Compound I-2530] | 0.016 |
| CC(CO)(CO)Cn1c(=O)[nH]/c(=N\c2ccc(Oc3ccsn3)cc2)n(Cc2ccc(Cl)cc2)c1=O [Compound I-2531] | 0.004 |
| CCn1c(=O)[nH]/c(=N\c2ccc(Oc3ccnc(C(N)=O)n3)cc2)n(Cc2ccc(Cl)cc2)c1=O [Compound I-2532] | 0.005 |
| CCn1c(=O)[nH]/c(=N\c2ccc(Oc3ccc(C(=O)NC)nn3)cc2)n(Cc2ccc(Cl)cc2)c1=O [Compound I-2533] | 0.004 |
| CNC(=O)[C@@H](C)n1c(=O)[nH]/c(=N\c2ccc(Oc3ccon3)cc2)n(Cc2ccc(Cl)cc2)c1=O [Compound I-2534] | 0.105 |
| CNC(=O)[C@H](C)n1c(=O)[nH]/c(=N\c2ccc(Oc3ccon3)cc2)n(Cc2ccc(Cl)cc2)c1=O [Compound I-2535] | 0.044 |
| COCCn1c(=O)[nH]/c(=N\c2ccc(Oc3ccnc(C(=O)OC)c3)cc2)n(Cc2ccc(Cl)cc2)c1=O [Compound I-2536] | 0.005 |
| COCCn1c(=O)[nH]/c(=N\c2ccc(Oc3cncc(C(=O)OC)c3)cc2)n(Cc2ccc(Cl)cc2)c1=O [Compound I-2537] | 0.005 |
| COCCn1c(=O)[nH]/c(=N\c2ccc(Oc3cccc(C#N)n3)cc2)n(Cc2ccc(Cl)cc2)c1=O [Compound I-2538] | 0.003 |
| CCOC(=O)CN(C(=O)OC(C)(C)C)c1cc(Oc2ccc(/N=c3\[nH]c(=O)n(CC)c(=O)n3Cc3ccc(Cl)cc3)cc2)ccn1 [Compound I-2540] | 0.104 |
| O=c1[nH]/c(=N\c2ccc(Oc3nccs3)cc2)n(Cc2ccc(Cl)cc2)c(=O)n1C(CO)CO [Compound I-2541] | 0.118 |
| O=c1[nH]/c(=N\c2ccc(Oc3ccon3)cc2)n(Cc2ccc(Cl)cc2)c(=O)n1C(CO)CO [Compound I-2542] | 0.186 |
| O=c1[nH]/c(=N\c2ccc(Oc3ncccn3)cc2)n(Cc2ccc(Cl)cc2)c(=O)n1CCCO [Compound I-2543] | 0.01 |
